Test results: patent US11555012B2 (Nimbus Artemis, Inc., priority 2018, dated 2023)
Like-named read-outs stand apart in the source and are kept apart here.

Columns and labels:
[1] = system: HepG2 cells; conditions: Homo sapiens, HepG2, read-out: ACLY HepG2 14C-Pyruvate Assay serum free IC50 FA (IC50) [μM]
Description: ACLY HepG2 ^14C-Pyruvate Incorporation Serum-Free Assay (IC50 Fatty
The protocol of the assay (below) was followed:
(§1) After 48 hours, change medium with fresh growth medium.
(§2) After 18 hours, replaced medium using 0.5 mL fresh medium (5.5 mM Glucose, without FBS, 1% PS, without Pyruvate) containing Compounds or 0.5% DMSO, incubated at 37° C., 5% CO2 for 1 hour.
(§3) Add 3 μci of [14C]-pyruvate per well to the cell samples were incubated at 37° C., 5% CO2 for 5 hours.
Medium was removed and placed into a 15 mL centrifuge tube. Add 0.5 mL of 0.1M NaOH to each well and then transfer the cell lysates into the corresponding 15 mL centrifuge tubes. 1.0 mL of EtOH and 0.17 mL 50% KOH were added to 15 mL tubes containing medium and cell suspensions, then shaking tube gently. […] Saponification 15 mL tubes containing medium and cell suspensions were incubated at 90° C. for 1 hour, then cooled to room temperature. […] Cholesterol Extraction 5 mL of petroleum ether was added per tube to extract Cholesterol, shaken vigorously, centrifuged at 1000 rpm for 5 min, and ˜5 mL of the petroleum ether layer was transferred to a new glass tube (18*180 mm). […] Acidification The samples in 15 mL tube were acidified directly with 1 mL concentrated HCl, make sure pH was below 1. […] Fatty Acids Extraction 5 mL of petroleum ether was added per tube, shaken vigorously, centrifuged at 1000 rpm for 5 min, 5 mL of the petroleum ether layer was transferred to the corresponding glass tube. […] Repeat the Step 8 10. Count The petroleum ether extracts were pooled and evaporated to dryness overnight. The residue from the petroleum ether fractions were resuspended in 500 μL of chloroform-hexane (1:1) containing 420 μg of linoleic acid as a carrier. Add 200 μL of resuspending (chloroform-hexane (1:1) containing 168 μg of linoleic acid) to 2 mL Ultima Gold™, after 30 min, count on a scintillation counter.

[2] = biological target: T1, ACL (Homo sapiens (Human), UniProt P53396); assay: ADP-Glo Assay
Target sequence in this assay (P53396 other isoform, or with tags, fused parts or gaps isoform P53396-2): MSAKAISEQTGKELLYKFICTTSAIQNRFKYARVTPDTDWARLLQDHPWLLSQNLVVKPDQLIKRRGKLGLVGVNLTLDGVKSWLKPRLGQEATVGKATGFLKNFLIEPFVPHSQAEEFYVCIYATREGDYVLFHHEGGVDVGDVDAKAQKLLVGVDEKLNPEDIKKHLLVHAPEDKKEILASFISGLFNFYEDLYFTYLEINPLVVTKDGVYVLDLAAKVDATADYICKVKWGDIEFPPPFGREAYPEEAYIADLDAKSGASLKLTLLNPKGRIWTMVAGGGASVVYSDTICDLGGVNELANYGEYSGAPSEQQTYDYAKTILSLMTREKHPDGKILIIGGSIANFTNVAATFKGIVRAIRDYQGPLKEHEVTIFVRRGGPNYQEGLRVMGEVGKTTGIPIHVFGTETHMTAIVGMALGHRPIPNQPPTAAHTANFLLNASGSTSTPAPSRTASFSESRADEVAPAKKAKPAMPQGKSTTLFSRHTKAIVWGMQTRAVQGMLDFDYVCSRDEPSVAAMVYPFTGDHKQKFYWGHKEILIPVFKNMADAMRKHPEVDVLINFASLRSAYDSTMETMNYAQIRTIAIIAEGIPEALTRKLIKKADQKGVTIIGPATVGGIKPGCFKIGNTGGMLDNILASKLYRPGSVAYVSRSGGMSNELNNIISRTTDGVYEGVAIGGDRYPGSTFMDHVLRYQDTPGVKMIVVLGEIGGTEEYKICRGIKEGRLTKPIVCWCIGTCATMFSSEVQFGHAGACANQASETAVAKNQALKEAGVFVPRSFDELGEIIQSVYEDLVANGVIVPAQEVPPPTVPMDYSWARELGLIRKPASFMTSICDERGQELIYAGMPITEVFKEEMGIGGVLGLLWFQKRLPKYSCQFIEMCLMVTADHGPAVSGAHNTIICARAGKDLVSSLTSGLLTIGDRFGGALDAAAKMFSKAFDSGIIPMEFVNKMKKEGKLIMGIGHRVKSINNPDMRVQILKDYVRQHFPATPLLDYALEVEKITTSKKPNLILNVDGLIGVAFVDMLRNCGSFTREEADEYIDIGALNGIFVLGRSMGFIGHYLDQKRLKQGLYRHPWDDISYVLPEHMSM

[3] = biological target: T1, ACL; assay: ACLY-MDH Coupled Assay
Target sequence in this assay (P53396 whole entry, species assumed): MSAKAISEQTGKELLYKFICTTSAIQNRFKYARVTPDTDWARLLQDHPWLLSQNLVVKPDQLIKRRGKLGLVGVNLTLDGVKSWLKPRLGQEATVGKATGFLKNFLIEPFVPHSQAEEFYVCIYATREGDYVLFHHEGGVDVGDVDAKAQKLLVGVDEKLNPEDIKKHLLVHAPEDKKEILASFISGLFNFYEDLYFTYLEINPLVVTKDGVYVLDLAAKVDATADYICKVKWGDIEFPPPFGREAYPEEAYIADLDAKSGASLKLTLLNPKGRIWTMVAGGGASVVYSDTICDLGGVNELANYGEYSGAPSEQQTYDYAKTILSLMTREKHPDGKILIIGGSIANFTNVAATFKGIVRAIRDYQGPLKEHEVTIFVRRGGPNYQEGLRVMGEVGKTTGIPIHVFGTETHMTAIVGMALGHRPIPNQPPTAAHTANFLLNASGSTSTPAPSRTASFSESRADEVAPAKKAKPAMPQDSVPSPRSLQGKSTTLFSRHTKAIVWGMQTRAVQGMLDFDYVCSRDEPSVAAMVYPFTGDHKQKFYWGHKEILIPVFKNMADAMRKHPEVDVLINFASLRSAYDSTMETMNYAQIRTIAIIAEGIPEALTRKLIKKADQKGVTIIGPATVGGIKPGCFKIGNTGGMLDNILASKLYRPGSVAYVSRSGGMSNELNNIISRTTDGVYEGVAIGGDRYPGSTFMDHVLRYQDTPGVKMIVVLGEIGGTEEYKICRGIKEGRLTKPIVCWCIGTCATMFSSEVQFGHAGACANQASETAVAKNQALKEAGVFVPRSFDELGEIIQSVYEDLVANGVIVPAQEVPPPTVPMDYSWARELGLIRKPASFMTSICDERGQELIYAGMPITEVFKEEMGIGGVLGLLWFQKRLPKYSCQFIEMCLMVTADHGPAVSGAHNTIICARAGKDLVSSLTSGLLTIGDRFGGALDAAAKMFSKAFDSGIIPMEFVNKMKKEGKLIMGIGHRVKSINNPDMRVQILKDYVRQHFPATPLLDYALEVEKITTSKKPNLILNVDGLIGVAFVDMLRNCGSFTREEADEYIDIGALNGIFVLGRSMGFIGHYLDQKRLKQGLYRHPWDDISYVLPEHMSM
Description: Compounds of the present invention were evaluated in an ACLY Coupled Assay.
The assay protocol for the Coupled Assay (below) was followed:
b) Add 1 μL cpds to 96 assay plate, Test cpd conc: 100/30/10 μM top dose, 3 folds dilution, 10+0+control (control: buffer without ACL+DMSO) points, 1000 rpm for 1 min, incubation at 25° C. for 60 min

[4] = system: HepG2 cells; conditions: Homo sapiens, HepG2, read-out: ACLY HepG2 14C-Pyruvate Assay serum free IC50 Cholesterol (IC50) [μM]
Description: ACLY HepG2 ^14C-Pyruvate Incorporation Serum-Free Assay (IC50 Cholesterol and Fatty Acid Synthesis)
Compounds of the present invention were evaluated in a HepG2 ^14C-pyruvate incorporation assay. The protocol below was followed:
as §1, §2, §3
Medium was removed and placed into a 15 mL centrifuge tube. Add 0.5 mL of 0.1M NaOH to each well and then transfer the cell lysates into the corresponding 15 mL centrifuge tubes. 1.0 mL of EtOH and 0.17 mL 50% KOH were added to 15 mL tubes containing medium and cell suspensions, then shaking tube gently. […] Saponification 15 mL tubes containing medium and cell suspensions were incubated at 90° C. for 1 hour, then cooled to room temperature. […] Cholesterol Extraction 5 mL of petroleum ether was added per tube to extract Cholesterol, shaken vigorously, centrifuged at 1000 rpm for 5 min, and ˜5 mL of the petroleum ether layer was transferred to a new glass tube (18*180 mm). […] Acidification The samples in 15 mL tube were acidified directly with 1 mL concentrated HCl, make sure pH was below 1. […] Fatty Acids Extraction 5 mL of petroleum ether was added per tube, shaken vigorously, centrifuged at 1000 rpm for 5 min, 5 mL of the petroleum ether layer was transferred to the corresponding glass tube. […] Count The petroleum ether extracts were pooled and evaporated to dryness overnight. The residue from the petroleum ether fractions were resuspended in 500 μL of chloroform-hexane (1:1) containing 420 μg of linoleic acid as a carrier. Add 200 μL of resuspending (chloroform-hexane (1:1) containing 168 μg of linoleic acid) to 2 mL Ultima Gold™, after 30 min, count on a scintillation counter.

[5] = read-out: ACL-ADP-Glo (IC50), 3 nM ACL, 15 μM ATP, 3 μM CoA, 300 μM Citrate
[6] = read-out: ACL-MDH Coupled Assay (IC50), 8 nM ACL, 60 μM CoA Na2, 85 μM Citrate, 250 μM ATP, 250 μM NADH

Structure (SMILES)	IC50 [1]	IC50 [2]	IC50 [3]	IC50 [4]	IC50 [2, 5]	IC50 [3, 6]	IC50 ([2]; read-out: ACL-ADP-Glo (IC50))
O=S(=O)(NC(c1ccccc1)c1ccccc1)c1cc(Cl)cc(Cl)c1O [I-16, N-benzhydry1-3,5-dichloro-2-hydroxybenzenesulfonamide]	1 to 10 µM	0.5 to 20 µM	0.5 to 30 µM	1 to 5 µM			
COc1ccc(-c2ccccc2)cc1NS(=O)(=O)c1cc(Cl)cc(Br)c1O [I-20, 3-bromo-5-chloro-2-hydroxy-N-(2-methoxy-5-phenylphenyl)benzene-1-sulfonamide]	1 to 10 µM	0.05 to 0.5 µM	< 0.05 µM	1 to 5 µM			
COc1ccc(-c2ccccc2)cc1NS(=O)(=O)c1cc(Br)cc(Cl)c1O [I-21, 5-bromo-3-chloro-2-hydroxy-N-(2-methoxy-5-phenylphenyl)benzene-1-sulfonamide]	1 to 10 µM	0.05 to 0.5 µM	0.05 to 0.5 µM	1 to 5 µM			
O=S(=O)(Nc1cc(-c2ccccc2)ccc1F)c1cc(Cl)cc(Br)c1O [I-23, 3-bromo-5-chloro-N-(4-fluoro-[1,1′-biphenyl]-3-yl)-2-hydroxybenzenesulfonamide]	1 to 10 µM	0.05 to 0.5 µM	< 0.05 µM	1 to 5 µM			
N#Cc1cc(Cl)c(O)c(S(=O)(=O)Nc2cc(-c3ccccc3)ccc2F)c1 [I-31, 3-chloro-5-cyano-N-(4-fluoro-[1,1′-biphenyl]-3-yl)-2-hydroxybenzenesulfonamide]	> 10 µM		0.05 to 0.5 µM	1 to 5 µM	< 0.05 µM		
O=S(=O)(Nc1cc(-c2ccccc2)ccc1F)c1cccc(Cl)c1O [I-33, 3-chloro-N-(4-fluoro-[1,1′-biphenyl]-3-yl)-2-hydroxybenzenesulfonamide]	> 10 µM	0.05 to 0.5 µM	0.5 to 30 µM	1 to 5 µM			
O=S(=O)(Nc1cc(-c2ccccc2)ccc1F)c1cc(Br)cc(Cl)c1O [I-34, 5-bromo-3-chloro-N-(2-fluoro-5-phenylphenyl)-2-hydroxybenzene-1-sulfonamide]	> 10 µM	0.05 to 0.5 µM	< 0.05 µM	1 to 5 µM			
O=S(=O)(c1cc(Cl)cc(Br)c1O)N(Cc1ccccc1)c1cc(-c2ccccc2)ccc1F [I-36, N-benzyl-3-bromo-5-chloro-N-(4-fluoro-[1,1′-biphenyl]-3-yl)-2-hydroxybenzenesulfonamide]	1 to 10 µM	0.5 to 20 µM	0.5 to 30 µM	1 to 5 µM			
O=S(=O)(Nc1cc(-c2ccccc2)c(F)cc1F)c1cc(Cl)cc(Cl)c1O [I-41, 3,5-dichloro-N-(2,4-difluoro-5-phenylphenyl)-2-hydroxybenzene-1-sulfonamide]	> 10 µM			1 to 5 µM	< 0.05 µM	< 0.05 µM	
COC(=O)c1cc(Cl)c(O)c(S(=O)(=O)Nc2cc(-c3ccccc3)ccc2F)c1 [I-47, Methyl 3-chloro-5-(N-(4-fluoro-[1,1′-biphenyl]-3-yl)sulfamoyl)-4-hydroxybenzoate]	1 to 10 µM			1 to 5 µM	< 0.05 µM	< 0.05 µM	
COC(=O)c1cc(Cl)c(O)c(S(=O)(=O)Nc2cc(-c3cccnc3)ccc2OC)c1 [I-48, Methyl 3-chloro-4-hydroxy-5-(N-(2-methoxy-5-(pyridin-3-yl)phenyl)sulfamoyl)benzoate]	> 10 µM	0.05 to 0.5 µM	0.5 to 30 µM	1 to 5 µM			
COc1ccc(-c2ccccc2)cc1NS(=O)(=O)c1cc(-c2ncco2)cc(Cl)c1O [I-59, 3-chloro-2-hydroxy-N-(2-methoxy-5-phenylphenyl)-5-(1,3-oxazol-2-yl)benzene-1-sulfonamide]	> 10 µM	0.05 to 0.5 µM	0.05 to 0.5 µM	1 to 5 µM			
COC(=O)c1cc(Cl)c(O)c(S(=O)(=O)Nc2cc(-c3cccs3)ccc2F)c1 [I-60, Methyl 3-chloro-5-[[2-fluoro-5-(thiophen-2-yl)phenyl]sulfamoyl]-4-hydroxybenzoate]	1 to 10 µM			< 1 µM	< 0.05 µM	< 0.05 µM	
COC(=O)c1cc(Cl)c(O)c(S(=O)(=O)Nc2cc(-c3ccccc3)c(F)cc2F)c1 [I-65, Methyl 3-chloro-5-[(2,4-difluoro-5-phenylphenyl)sulfamoyl]-4-hydroxybenzoate]	> 10 µM			5 to 20 µM		< 0.05 µM	< 0.05 µM
O=C(c1cc(Cl)c(O)c(S(=O)(=O)Nc2cc(-c3ccccc3)c(F)cc2F)c1)N1CCCC1 [I-82, 3-chloro-N-(4,6-difluoro-[1,1′-biphenyl]-3-yl)-2-hydroxy-5-(pyrrolidine-1-carbonyl)benzenesulfonamide]	> 10 µM			1 to 5 µM	< 0.05 µM	< 0.05 µM	
CC(C)OC(=O)c1cc(Cl)c(O)c(S(=O)(=O)Nc2cc(-c3ccccc3)c(F)cc2F)c1 [I-86, propan-2-yl 3-chloro-5-[(2,4-difluoro-5-phenylphenyl)sulfamoyl]-4-hydroxybenzoate]	> 10 µM			1 to 5 µM	< 0.05 µM	< 0.05 µM	
CON(C)C(=O)c1cc(Cl)c(O)c(S(=O)(=O)Nc2cc(-c3ccccc3)c(F)cc2F)c1 [I-87, 3-chloro-5-[(2,4-difluoro-5-phenylphenyl)sulfamoyl]-4-hydroxy-N-methoxy-N-methylbenzamide]	> 10 µM			1 to 5 µM	< 0.05 µM	< 0.05 µM	
O=S(=O)(Nc1cc(-c2ccccc2)c(F)cc1F)c1cc(Br)cc(Cl)c1O [I-88, 5-bromo-3-chloro-N-[4,6-difluoro-[1,1-biphenyl]-3-yl]-2-hydroxybenzene-1-sulfonamide]	> 10 µM			1 to 5 µM	< 0.05 µM	< 0.05 µM	
O=S(=O)(Nc1cc(-c2ccccc2)c(F)cc1F)c1cc(CO)cc(Cl)c1O [I-90, 3-chloro-N-(2,4-difluoro-5-phenylphenyl)-2-hydroxy-5-(hydroxymethyl)benzene-1-sulfonamide]	> 10 µM	0.05 to 0.5 µM	0.05 to 0.5 µM	1 to 5 µM			
COCc1cc(Cl)c(O)c(S(=O)(=O)Nc2cc(-c3ccccc3)c(F)cc2F)c1 [I-91, 3-chloro-N-(2,4-difluoro-5-phenylphenyl)-2-hydroxy-5-(methoxymethyl)benzene-1-sulfonamide]	1 to 10 µM	0.05 to 0.5 µM	0.05 to 0.5 µM	1 to 5 µM			
O=C(c1cc(Cl)c(O)c(S(=O)(=O)Nc2cc(-c3ccccc3)c(F)cc2F)c1)N1CCC1 [I-98, 5-(azetidine-1-carbonyl)-3-chloro-N-(4,6-difluoro-[1,1′-biphenyl]-3-yl)-2-hydroxybenzenesulfonamide]	> 10 µM			1 to 5 µM	< 0.05 µM	< 0.05 µM	
CCC(=O)c1cc(Cl)c(O)c(S(=O)(=O)Nc2cc(-c3ccccc3)c(F)cc2F)c1 [I-101, 3-chloro-N-(2,4-difluoro-5-phenylphenyl)-2-hydroxy-5-propanoylbenzene-1-sulfonamide]	> 10 µM			< 1 µM	< 0.05 µM	< 0.05 µM	
COC(=O)c1cc(Cl)c(O)c(S(=O)(=O)Nc2ccc(F)c(-c3ccccc3)c2F)c1 [I-110, Methyl 3-chloro-5-[(2,4-difluoro-3-phenylphenyl)sulfamoyl]-4-hydroxybenzoate]	> 10 µM	0.5 to 20 µM	0.5 to 30 µM	1 to 5 µM			
COC(=O)c1cc(Cl)c(O)c(S(=O)(=O)Nc2cc(-c3ccccc3)cc(F)c2F)c1 [I-111, Methyl 3-chloro-5-[(2,3-difluoro-5-phenylphenyl)sulfamoyl]-4-hydroxybenzoate]	> 10 µM			1 to 5 µM	< 0.05 µM	< 0.05 µM	
O=S(=O)(Nc1cc(-c2ccccc2)ccc1F)c1cc(Br)ccc1O [I-113, N5-bromo-N-(2-fluoro-5-phenylphenyl)-2-hydroxybenzene-1-sulfonamide]	1 to 10 µM	0.5 to 20 µM	0.5 to 30 µM	1 to 5 µM			
O=S(=O)(Nc1cc(-c2ccccc2)c(F)cc1F)c1cc(-c2ncco2)cc(Cl)c1O [I-116, 3-chloro-N-[4,6-difluoro-[1,1-biphenyl]-3-yl]-2-hydroxy-5-(1,3-oxazol-2-yl)benzene-1-sulfonamide]	> 10 µM			1 to 5 µM	< 0.05 µM	< 0.05 µM	
O=S(=O)(Nc1cc(-c2ccccc2)c(F)cc1F)c1cc(C(F)(F)F)cc(Cl)c1O [I-117, 3-chloro-N-(4,6-difluoro-[1,1′-biphenyl]-3-yl)-2-hydroxy-5-(trifluoromethyl)benzenesulfonamide]	1 to 10 µM			1 to 5 µM	< 0.05 µM	< 0.05 µM	
COC(=O)c1cc(Cl)c(O)c(S(=O)(=O)Nc2cc(-c3ccccc3)c(F)cc2F)c1C [I-126, Methyl 5-chloro-3-([4,6-difluoro-[1,1-biphenyl]-3-yl]sulfamoyl)-4-hydroxy-2-methylbenzoate]	1 to 10 µM		0.05 to 0.5 µM	1 to 5 µM	< 0.05 µM		
COC(=O)c1cc(Cl)c(O)c(S(=O)(=O)Nc2cc(C3CC3)c(F)cc2F)c1 [I-127, Methyl 3-chloro-5-[(5-cyclopropyl-2,4-difluorophenyl)sulfamoyl]-4-hydroxybenzoate]	> 10 µM			1 to 5 µM	< 0.05 µM	< 0.05 µM	
COC(=O)c1cc(Cl)c(O)c(S(=O)(=O)Nc2cc(-c3cc4ccccc4s3)c(F)cc2F)c1 [I-128, Methyl 3-[[5-(1-benzothiophen-2-yl)-2,4-difluorophenyl]sulfamoyl]-5-chloro-4-hydroxybenzoate]	> 10 µM			5 to 20 µM	< 0.05 µM	< 0.05 µM	
